# Where a SMILES comes first, the peptide text is derived from it. Where no end group is shown, it is not given here. [ ]: non-standard residue; d: D form. The star is where a group is joined. Phe(4-N(CH2CH2Cl)2) = N[C@@H](Cc1ccc(N(CCCl)CCCl)cc1)C(=O)O; 5FAM = O=C1OC2(c3ccc(O)cc3Oc3cc(O)ccc32)c2ccc(C(=O)*)cc21
# Legend:
# 9L-Luc gliosarcoma cells = assay: In vitro cytotoxicity (BrdU and bioluminescence assays); type: cell-based; details: 1-100 μM, 1-hour exposure, viability at 24 hours
# Experimental: In vitro cytotoxicity studies and uptake analysis. […] 9L luciferase-expressing (9L-Luc) gliosarcoma cells (provided by Dr. Brian Ross University of Michigan, Ann Arbor) were incubated in a 96 well plate and grown to 95% confluence. 9L-Luc cells were cultured in Delbecco's Modified Eagle Medium (DMEM) with fetal bovine serum (10%), streptomycin ([…]) and penicillin (100 U/ml) and 1-glutamine 2 mM in an atmosphere 95/5% O2 and CO2 with 100% humidity. They were exposed to 1, 10, and 100 μM of the compound for 1-hour and assessed for viability at 24 hours. Data for all three assays was normalized to the survival of untreated cells. Assays were run in triplicate and fluorescence values were averaged for each treatment. The 3% hydrogen peroxide treated cells provided positive controls.
# 9L cells = details: one hour exposure, MTT and BrdU assays after 7 days
# Experimental: Cytotoxicity Study. 9L cells were grown to confluence in 96-well plates. Individual wells were exposed to no treatment or increasing concentrations of melphalan, TAT monomer, melphalan-conjugated TAT monomer (obtained from a supplier) or melphalan-conjugated TAT dimer (obtained from a supplier). Cells were incubated under these conditions for one hour. Growth factors were then reintroduced and the cells were grown for a week with standard periodic care. After 7 days, MTT and BrdU assays were used to assess cell viability. All tests were done in quadruplicate and data normalized to the untreated group. […] IV injection of the […]
# 9L-gliosarcoma cells = assay: Membrane fluidity with beta-cyclodextrin cholesterol depletion; type: cell-based; details: 4° C. and 37° C., FIG. 33C
# Experimental: 9L-gliosarcoma cells were grown to confluence in T-75 in recommended culture media. Membrane fluidity was determined by using commercially available “Gene Marker” kit. Fluorescein tagged TAT was used for determining uptake of the cell penetrating peptide. To alter membrane fluidity TAT uptake was determined at different temperatures of 4° C., 15° C. 25° C., 35° C. and 37° C.
# The role of cholesterol in affecting membrane fluidity was then assessed. Cholesterol content of the membrane was measured using the commercially available Fillipin-III assay. Beta-cyclodextrin was used to deplete membrane cholesterol. The effect of cyclodextrin on TAT uptake of 100 μL at 0.1 mg/mL for 10 minutes at different temperatures was then assessed. Fluorescence was assessed by flow cytometry and confocal imaging was performed as needed.
# 9L glioma tumor = assay: In vivo uptake of TAT dimer versus monomer by IA-TCH (MSI and confocal imaging); set-up: species or system rat; details: dimer 0.25 mg, monomer 0.125 mg, five rats each
# Experimental: An additional experiment was performed to assess the in vivo uptake of fluorescein-labeled TAT dimer by IA-TCH. About 14 days after 9L glioma tumor implantation, rats were anesthetized and prepared for TAT dimer delivery experiments. TAT dimer was conjugated with fluorescein such that its concentrations in post mortem samples could be determined immediately by multispectral imaging and confocal imaging. TAT dimer (0.25 mg) and monomer (0.125 mg) were tested using IA-TCH delivery both containing equal amounts of fluorescein were evaluated. […] Animals were sacrificed 15 minutes after TAT injection. Brain tissue was harvested.
# 9L glioma = assay: Survival after IA-TCH delivery of melphalan or melphalan-conjugated TAT; type: in vivo, rat; details: for Bleeding events: IA-TCH
# Experimental: Thirteen 9L glioma-implanted anesthetized rats were intubated and ventilated. The carotid artery of each rat was exposed and cannulated but the ICA was not isolated to minimize surgical trauma. The rats were subjected to delivery of melphalan with adenosine, esmolol and cold saline via IA-TCH. Six rats received 0.25 mg of melphalan, three rats received 0.5 mg melphalan and one rat received 1 mg of melphalan. Remaining rats were either treated with saline or left untreated. After the IA-TCH injection, rats were allowed to recover and sacrificed when pre-determined criteria were met.
# A similar procedure was performed on seven 9L glioma-implanted rats using melphalan-conjugated TAT monomer at a dose of 1 mg (0.16 mg melphalan content). However, the ICA was isolated with an aneurysm clip. Survival of the rats was monitored and images of the brains of the rats were obtained by MRI. The same procedure was performed using 5 rats with melphalan-conjugated TAT dimer at a dose of 1 mg (0.08 mg melphalan content).
# [1] = Delivery of cell-penetrating peptides to the brain of healthy rats, confocal microscopy; type: in vivo, rat; details: rat, in vivo
# Source text: Animal preparation, IA-TCH injection, and brain tumor implantation. Animal protocols were approved by the Columbia University Institutional Animal Care and Use Committee (IACUC). Studies were primarily conducted on Sprague-Dawley rats weighing 250 to 300 grams. In the case of electron multiplying charge-coupled device imaging studies, Fisher 344 rats implanted with 9L brain tumors were utilized. The surgical preparation including anesthesia, carotid and femoral cannulation, cerebral blood flow and vital sign monitoring, as well as in vivo fluorescence imaging have been previously described in detail.
# IA injections of cell-penetrating peptides (CPPs) were made during TCH as 65 μL pulses totaling 1 ml in volume. TCH was produced by a bolus injection of adenosine, esmolol, and cold saline. Animals were allowed to hemodynamically recover from TCH and euthanized 10 minutes after injection. Uptake of CPPs was assessed with a fluorescence camera and with confocal fluorescence microscopy.
# Cell-penetrating peptides. Two experimental cell-penetrating peptides were tested: 1. octaarginine, also called (Arg)8 or R-8 (SEQ ID NO: 13) and 2. trans-activator of transcription or TAT (Lifetien Inc.). The 14 amino acid peptide sequence for TAT is […]COOH (SEQ ID NO: 11). Both cell-penetrating peptides (CPPs) were labeled with fluorescein so that their distribution could be identified by multispectral imaging and with fluorescence microscopy of the frozen brain sections.
# Fluorescence and electron multiplying charge-coupled device imaging.
molecule,measurement,setting,value
"COc1cccc2c1C(=O)c1c(O)c3c(c(O)c1C2=O)C[C@@](O)(C(=O)CO)C[C@@H]3O[C@H]1C[C@H](N)[C@H](O)[C@H](C)O1 [Dox, Doxorubicin]",Relative toxicity (cellular viability),9L-Luc gliosarcoma cells,highest toxicity
N=C(N)NCCC[C@H](NC(=O)CN)C(=O)N[C@@H](CCCCN)C(=O)N[C@@H](CCCCN)C(=O)N[C@@H](CCCNC(=N)N)C(=O)N[C@@H](CCCNC(=N)N)C(=O)N[C@@H](CCC(N)=O)C(=O)N[C@@H](CCCNC(=N)N)C(=O)N[C@@H](CCCNC(=N)N)C(=O)N[C@@H](CCCNC(=N)N)C(=O)N1CCC[C@H]1C(=O)N1CCC[C@H]1C(=O)N[C@@H](CCC(N)=O)C(=O)N[C@@H](CCC(N)=O)C(=O)O [TAT monomer],Relative cytotoxicity (cell viability),9L cells,cytotoxicity increases from TAT monomer to melphalan-conjugated TAT monomer to melphalan-conjugated TAT dimer to melphalan alone
OC[C@H]1O[C@@H]2O[C@H]3[C@H](O)[C@@H](O)[C@@H](O[C@H]4[C@H](O)[C@@H](O)[C@@H](O[C@H]5[C@H](O)[C@@H](O)[C@@H](O[C@H]6[C@H](O)[C@@H](O)[C@@H](O[C@H]7[C@H](O)[C@@H](O)[C@@H](O[C@H]8[C@H](O)[C@@H](O)[C@@H](O[C@H]1[C@H](O)[C@H]2O)O[C@@H]8CO)O[C@@H]7CO)O[C@@H]6CO)O[C@@H]5CO)O[C@@H]4CO)O[C@@H]3CO [beta-cyclodextrin],Effect on membrane fluidity,9L-gliosarcoma cells,increased fluidity at higher temperatures (37° C.) than at lower temperature (4° C.) in a dose-dependent manner
"N=C(N)NCCC[C@H](NC(=O)CNC(=O)[C@H](CCC(N)=O)NC(=O)[C@H](CCC(N)=O)NC(=O)[C@@H]1CCCN1C(=O)[C@@H]1CCCN1C(=O)[C@H](CCCNC(=N)N)NC(=O)[C@H](CCCNC(=N)N)NC(=O)[C@H](CCCNC(=N)N)NC(=O)[C@H](CCC(N)=O)NC(=O)[C@H](CCCNC(=N)N)NC(=O)[C@H](CCCNC(=N)N)NC(=O)[C@H](CCCCN)NC(=O)[C@H](CCCCN)NC(=O)[C@H](CCCNC(=N)N)NC(=O)CNC(=O)c1ccc2c(c1)C(=O)OC21c2ccc(O)cc2Oc2cc(O)ccc21)C(=O)N[C@@H](CCCCN)C(=O)N[C@@H](CCCCN)C(=O)N[C@@H](CCCNC(=N)N)C(=O)N[C@@H](CCCNC(=N)N)C(=O)N[C@@H](CCC(N)=O)C(=O)N[C@@H](CCCNC(=N)N)C(=O)N[C@@H](CCCNC(=N)N)C(=O)N[C@@H](CCCNC(=N)N)C(=O)N1CCC[C@H]1C(=O)N1CCC[C@H]1C(=O)N[C@@H](CCC(N)=O)C(=O)N[C@@H](CCC(N)=O)C(=O)O [fluorescein-labeled TAT dimer, 5-FAM-GRKKRRQRRR PPQQGRKKRR QRRRPPQQ-COOH] (5FAM-GRKKRRQRRRPPQQGRKKRRQRRRPPQQ-OH)",Tumor selective delivery,9L glioma tumor,able to achieve tumor selective drug delivery
"N[C@@H](Cc1ccc(N(CCCl)CCCl)cc1)C(=O)O [melphalan, Melphalan, reference compound]",Dose group with peak survival,"9L glioma; 0.25, 0.5, 1 mg IA-TCH",peak survival was found in the 0.25 mg melphalan group
same,Bleeding events,9L glioma,significant bleeding
same,Survival,"9L glioma; melphalan 0.25, 0.5 or 1 mg IA-TCH, p=0.07 versus controls",30 ± 8 days
same,Relative cytotoxicity (cell viability),9L cells,cytotoxicity increases from TAT monomer to melphalan-conjugated TAT monomer to melphalan-conjugated TAT dimer to melphalan alone
N=C(N)NCCC[C@H](NC(=O)CNC(=O)[C@H](CCC(N)=O)NC(=O)[C@H](CCC(N)=O)NC(=O)[C@@H]1CCCN1C(=O)[C@@H]1CCCN1C(=O)[C@H](CCCNC(=N)N)NC(=O)[C@H](CCCNC(=N)N)NC(=O)[C@H](CCCNC(=N)N)NC(=O)[C@H](CCC(N)=O)NC(=O)[C@H](CCCNC(=N)N)NC(=O)[C@H](CCCNC(=N)N)NC(=O)[C@H](CCCCN)NC(=O)[C@H](CCCCN)NC(=O)[C@H](CCCNC(=N)N)NC(=O)CNC(=O)[C@@H](N)Cc1ccc(N(CCCl)CCCl)cc1)C(=O)N[C@@H](CCCCN)C(=O)N[C@@H](CCCCN)C(=O)N[C@@H](CCCNC(=N)N)C(=O)N[C@@H](CCCNC(=N)N)C(=O)N[C@@H](CCC(N)=O)C(=O)N[C@@H](CCCNC(=N)N)C(=O)N[C@@H](CCCNC(=N)N)C(=O)N[C@@H](CCCNC(=N)N)C(=O)N1CCC[C@H]1C(=O)N1CCC[C@H]1C(=O)N[C@@H](CCC(N)=O)C(=O)N[C@@H](CCC(N)=O)C(=O)O [melphalan-conjugated TAT dimer] (H-[Phe(4-N(CH2CH2Cl)2)]GRKKRRQRRRPPQQGRKKRRQRRRPPQQ-OH),Bleeding events,9L glioma,No significant bleeding events
same,Relative cytotoxicity (cell viability),9L cells,cytotoxicity increases from TAT monomer to melphalan-conjugated TAT monomer to melphalan-conjugated TAT dimer to melphalan alone
N=C(N)NCCC[C@H](NC(=O)CNC(=O)[C@@H](N)Cc1ccc(N(CCCl)CCCl)cc1)C(=O)N[C@@H](CCCCN)C(=O)N[C@@H](CCCCN)C(=O)N[C@@H](CCCNC(=N)N)C(=O)N[C@@H](CCCNC(=N)N)C(=O)N[C@@H](CCC(N)=O)C(=O)N[C@@H](CCCNC(=N)N)C(=O)N[C@@H](CCCNC(=N)N)C(=O)N[C@@H](CCCNC(=N)N)C(=O)N1CCC[C@H]1C(=O)N1CCC[C@H]1C(=O)N[C@@H](CCC(N)=O)C(=O)N[C@@H](CCC(N)=O)C(=O)O [melphalan-conjugated TAT monomer],Tolerability,9L glioma; 1 mg IA-TCH,well tolerated
same,Bleeding events,9L glioma,Only one of seven animals showed some evidence of a tail bleed
same,Relative cytotoxicity (cell viability),9L cells,cytotoxicity increases from TAT monomer to melphalan-conjugated TAT monomer to melphalan-conjugated TAT dimer to melphalan alone
"octaarginine (RRRRRRRR; also: FITC label, position not given here) [FITC labeled R8, reference compound]",Deposition by hemisphere,[1],detectable deposition preferentially to the hemisphere ipsilateral to carotid injection
same,Distribution in the brain (semi-quantitative),[1],more discrete and predominantly within vessel walls

# — US11980667B2, “Short TAT oligomers for drug delivery” (The Trustees of Columbia University in the City of New York, priority 2017, dated 2024)
